Measured values as given in ChEMBL document CHEMBL4725332, “The design of a novel near-infrared fluorescent HDAC inhibitor and image of tumor cells” (Bioorg Med Chem, 2020).
Activity calls are given as the source filed them. The calls are words filed in the database; no cut-off is given here.

Key:
Histone deacetylase 3 = Histone deacetylase 3 (Homo sapiens, UniProt O15379); assay: Inhibition of human recombinant HDAC3 expressed in baculovirus infected High5 insect cells using Ac-Lys-Tyr-Lys(e-acetyl)-AMC as substrate incubated for 24 hrs measured after 30 mins by microplate reader based spectrophotometric analysis; design: species or system BTI-TN-5B1-4
[1] = target: T1, Protein deacetylase HDAC6 (Homo sapiens, UniProt Q9UBN7); assay: Inhibition of human recombinant HDAC6 expressed in baculovirus infected High5 insect cells using Boc-Lys(eacety1)-AMC as substrate incubated for 3 hrs measured after 30 mins by microplate reader based spectrophotometric analysis; design: species or system BTI-TN-5B1-4
T1 sequence (Q9UBN7 whole entry): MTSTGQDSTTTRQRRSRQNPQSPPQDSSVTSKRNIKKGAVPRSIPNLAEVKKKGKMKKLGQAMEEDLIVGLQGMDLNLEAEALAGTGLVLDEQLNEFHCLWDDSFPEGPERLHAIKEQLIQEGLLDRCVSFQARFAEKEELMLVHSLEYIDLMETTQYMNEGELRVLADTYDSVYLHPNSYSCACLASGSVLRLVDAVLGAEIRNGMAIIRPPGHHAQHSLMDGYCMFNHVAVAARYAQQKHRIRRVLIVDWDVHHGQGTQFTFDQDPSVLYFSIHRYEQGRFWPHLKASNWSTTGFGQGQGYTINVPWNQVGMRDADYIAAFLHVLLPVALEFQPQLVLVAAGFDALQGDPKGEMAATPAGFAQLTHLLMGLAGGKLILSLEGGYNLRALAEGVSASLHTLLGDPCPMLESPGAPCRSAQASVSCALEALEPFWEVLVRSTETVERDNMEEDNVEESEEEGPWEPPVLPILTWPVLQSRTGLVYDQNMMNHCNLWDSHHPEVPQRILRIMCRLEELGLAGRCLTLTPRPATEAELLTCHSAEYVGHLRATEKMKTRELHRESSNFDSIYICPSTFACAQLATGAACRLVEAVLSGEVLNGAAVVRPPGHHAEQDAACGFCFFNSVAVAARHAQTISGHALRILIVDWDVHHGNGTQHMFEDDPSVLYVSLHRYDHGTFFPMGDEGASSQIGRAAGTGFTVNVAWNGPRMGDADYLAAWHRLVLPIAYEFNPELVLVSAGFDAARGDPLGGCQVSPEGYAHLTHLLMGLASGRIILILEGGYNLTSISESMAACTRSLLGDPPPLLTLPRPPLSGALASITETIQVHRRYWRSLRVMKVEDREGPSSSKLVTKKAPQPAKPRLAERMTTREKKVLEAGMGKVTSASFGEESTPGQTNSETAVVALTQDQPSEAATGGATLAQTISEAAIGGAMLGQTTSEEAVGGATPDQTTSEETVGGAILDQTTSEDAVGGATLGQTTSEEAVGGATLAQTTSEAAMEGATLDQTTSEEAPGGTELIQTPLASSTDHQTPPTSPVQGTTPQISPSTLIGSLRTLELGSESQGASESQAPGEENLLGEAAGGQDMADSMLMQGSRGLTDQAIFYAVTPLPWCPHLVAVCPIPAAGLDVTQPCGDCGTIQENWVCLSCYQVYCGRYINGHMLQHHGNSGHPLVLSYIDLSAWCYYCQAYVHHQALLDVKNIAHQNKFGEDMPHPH

[2] = Emission property of the compound assessed as fluorescence at 5 uM under acidic condition at pH 4 by fluorescence spectrophotometric method; type: physicochemical; settings: pH 4, 5 µM
[3] = Absorption property of the compound assessed as maximum absorption wavelength at 5 uM under pH condition 7.4 by fluorescence spectrophotometric method; type: physicochemical
HeLa = assay: Antiproliferation activity against human Hela cells assessed as reduction in cell viability incubated for 72 hrs by MTT assay; type: functional, cell-based
[4] = Drug uptake in human MDA-MB-231 cells assessed as decrease in fluorescence intensity at 25 uM for 1 to 24 hrs by fluorescence imaging analysis; type: ADME, cell-based; settings: mda-mb-231, 25 µM, time 1-24 hrs
[5] = Drug uptake in human MDA-MB-231 cells assessed as increased fluorescence intensity at 5 uM for 1 to 24 hrs by fluorescence imaging analysis; type: ADME, cell-based; settings: mda-mb-231, 25 µM, time 1-24 hrs
[6] = Emission property of the compound assessed as maximum wavelength at 5 uM under pH condition 7.4 at excitation wavelength by fluorescence spectrophotometric method; type: physicochemical
[7] = Drug uptake in human Hela cells assessed as increased fluorescence intensity at 5 to 25 uM for 1 to 24 hrs by fluorescence imaging analysis; type: ADME, cell-based; settings: dose 1-25 µM, time 1-24 hrs
Histone deacetylase 1 = Histone deacetylase 1 (Homo sapiens, UniProt Q13547); assay: Inhibition of human recombinant HDAC1 expressed in baculovirus infected High5 insect cells using Ac-Lys-Tyr-Lys(e-acetyl)-AMC as substrate incubated for 24 hrs measured after 30 mins by microplate reader based spectrophotometric analysis; design: species or system BTI-TN-5B1-4
MDA-MB-231 = assay: Antiproliferation activity against human MDA-MB-231 cells assessed as reduction in cell viability incubated for 72 hrs by MTT assay; type: functional, cell-based
[8] = Chemical stability of compound in PBS buffer assessed as drug degradation at 37 degree C; type: physicochemical

Chain of Histone deacetylase 1 (Q13547 whole entry): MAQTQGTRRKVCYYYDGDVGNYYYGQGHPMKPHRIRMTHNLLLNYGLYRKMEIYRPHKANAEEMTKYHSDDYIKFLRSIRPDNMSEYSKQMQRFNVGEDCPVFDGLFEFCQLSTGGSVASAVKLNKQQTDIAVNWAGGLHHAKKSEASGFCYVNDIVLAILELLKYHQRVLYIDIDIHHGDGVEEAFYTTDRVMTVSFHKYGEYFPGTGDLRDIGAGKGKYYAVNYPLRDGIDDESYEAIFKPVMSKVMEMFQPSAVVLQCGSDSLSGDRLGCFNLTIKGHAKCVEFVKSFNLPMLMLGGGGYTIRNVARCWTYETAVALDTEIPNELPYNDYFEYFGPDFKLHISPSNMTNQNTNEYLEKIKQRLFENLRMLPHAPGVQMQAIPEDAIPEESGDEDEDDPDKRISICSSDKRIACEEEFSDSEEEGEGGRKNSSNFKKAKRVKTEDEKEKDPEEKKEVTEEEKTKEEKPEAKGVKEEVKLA
Chain of Histone deacetylase 3 (O15379 whole entry): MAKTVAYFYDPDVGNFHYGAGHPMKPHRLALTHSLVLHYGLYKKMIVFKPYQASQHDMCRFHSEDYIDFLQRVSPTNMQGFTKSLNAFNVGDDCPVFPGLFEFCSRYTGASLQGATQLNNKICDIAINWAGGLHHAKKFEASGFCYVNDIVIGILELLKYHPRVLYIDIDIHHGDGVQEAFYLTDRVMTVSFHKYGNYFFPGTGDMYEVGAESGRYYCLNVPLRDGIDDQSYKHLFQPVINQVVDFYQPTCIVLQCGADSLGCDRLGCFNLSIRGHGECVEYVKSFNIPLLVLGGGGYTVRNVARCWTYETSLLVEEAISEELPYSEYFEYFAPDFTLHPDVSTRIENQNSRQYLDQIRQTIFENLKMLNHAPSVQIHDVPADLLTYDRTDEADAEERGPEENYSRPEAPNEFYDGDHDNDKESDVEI

| IC50 (Histone deacetylase 3) [µM] | IC50 [1] [µM] | Activity [2] | Activity [3] [nm] | Drug uptake [4] | Drug uptake [5] | Activity [6] [nm] | Drug uptake [7] | IC50 (Histone deacetylase 1) [µM] | IC50 (HeLa) [µM] | Stabilty [8] | IC50 (MDA-MB-231; MDA-MB-231, 72 h) [µM] | Compound | Activity (HeLa) | Activity (MDA-MB-231) |
| --- | --- | --- | --- | --- | --- | --- | --- | --- | --- | --- | --- | --- | --- | --- |
| 11 | 13.8 | Not Active | 707 | Active | Not Active | 723 | Not Active | 9.69 | – | – | – | CC[N+]1=C(/C=C/C2=C3Oc4cc(O)cc(OCCCCCCCC(=O)O)c4C=C3CCC2)C(C)(C)c2ccccc21.[I-] | inactive | inactive |
| 0.57 | 0.19 | Not Active | 707 | Active | Active | 723 | Active | 0.36 | 5.91 | Stable | 9.2 | CC[N+]1=C(/C=C/C2=C3Oc4cc(O)cc(OCCCCCCCC(=O)NO)c4C=C3CCC2)C(C)(C)c2ccccc21.[I-] | – | – |
